# According to publication PMC5218480 (PLoS ONE, 2017):
# Tested on: MV-4-11 cells
# Test: Gene expression microarray analysis (Affymetrix PrimeView) and GSEA
# Format: cell-based, human
# Design: RFU PODN (11730768_x_at) / Fold change /veh PODN (11730768_x_at) / RFU LINC00158 (11744669_a_at) / Fold change /veh LINC00158 (11744669_a_at) / RFU DUSP10 (11751237_a_at) / Fold change /veh DUSP10 (11751237_a_at) / RFU ID3 (11757404_x_at) / Fold change /veh ID3 (11757404_x_at) / RFU PLEKHG5 (11737974_s_at) / Fold change /veh PLEKHG5 (11737974_s_at) / RFU LRRC4B (11730491_at) / Fold change /veh LRRC4B (11730491_at) / RFU GIMAP4 (11747438_a_at) / Fold change /veh GIMAP4 (11747438_a_at) / RFU KRT8 (11758183_x_at) / Fold change /veh KRT8 (11758183_x_at) / RFU CNN1 (11734310_a_at) / Fold change /veh CNN1 (11734310_a_at) / RFU VPS37D (11726825_at) / Fold change /veh VPS37D (11726825_at) / RFU C10orf10 (11716522_x_at) / Fold change /veh C10orf10 (11716522_x_at) / RFU KIR2DL2 /// KIR2DL4 /// KIR2DL5A /// KIR2DL5B /// KIR2DS1 /// KIR2DS2 /// KIR2DS3 /// KIR2DS4 /// KIR3DL3 /// KIR3DL3 /// KIR3DS1 (11738374_at) / Fold change /veh KIR2DL2 /// KIR2DL4 /// KIR2DL5A /// KIR2DL5B /// KIR2DS1 /// KIR2DS2 /// KIR2DS3 /// KIR2DS4 /// KIR3DL3 /// KIR3DL3 /// KIR3DS1 (11738374_at) / RFU C1QL1 (11718748_at) / Fold change /veh C1QL1 (11718748_at) / RFU TMPRSS4 (11747572_a_at) / Fold change /veh TMPRSS4 (11747572_a_at) / RFU HAMP (11756126_x_at) / Fold change /veh HAMP (11756126_x_at) / RFU RNFT2 (11725882_a_at) / Fold change /veh RNFT2 (11725882_a_at) / RFU NR4A2 (11747474_a_at) / Fold change /veh NR4A2 (11747474_a_at) / RFU ABCC12 (11746883_a_at) / Fold change /veh ABCC12 (11746883_a_at) / RFU TMEM136 (11760407_x_at) / Fold change /veh TMEM136 (11760407_x_at) / RFU CLDN22 /// WWC2 (11732394_at) / Fold change /veh CLDN22 /// WWC2 (11732394_at) / RFU HLA-DPB1 (11760878_x_at) / Fold change /veh HLA-DPB1 (11760878_x_at) / RFU SPINT1 (11716480_a_at) / Fold change /veh SPINT1 (11716480_a_at) / RFU GAP43 (11754022_s_at) / Fold change /veh GAP43 (11754022_s_at) / RFU A4GNT (11735810_at) / Fold change /veh A4GNT (11735810_at) / RFU PRB3 (11715151_x_at) / Fold change /veh PRB3 (11715151_x_at) / RFU TUBB4B (11761932_at) / Fold change /veh TUBB4B (11761932_at) / RFU CAPN14 (11732068_a_at) / Fold change /veh CAPN14 (11732068_a_at) / RFU TMCC2 (11721928_a_at) / Fold change /veh TMCC2 (11721928_a_at) / RFU IRGQ (11745062_a_at) / Fold change /veh IRGQ (11745062_a_at) / RFU FAM174B (11720279_a_at) / Fold change /veh FAM174B (11720279_a_at) / RFU TMPRSS4 (11748680_a_at) / Fold change /veh TMPRSS4 (11748680_a_at) / RFU FAM212B (11763350_a_at) / Fold change /veh FAM212B (11763350_a_at) / RFU PLEKHG5 (11743358_a_at) / Fold change /veh PLEKHG5 (11743358_a_at) / RFU ZSCAN30 (11745921_a_at) / Fold change /veh ZSCAN30 (11745921_a_at) / RFU CMKLR1 (11741424_a_at) / Fold change /veh CMKLR1 (11741424_a_at) / RFU LOC101060620 /// MAPK8IP1 (11723275_at) / Fold change /veh LOC101060620 /// MAPK8IP1 (11723275_at) / RFU SPTSSB (11747773_x_at) / Fold change /veh SPTSSB (11747773_x_at) / RFU PRSS12 (11739890_at) / Fold change /veh PRSS12 (11739890_at) / RFU BIN1 (11741810_x_at) / Fold change /veh BIN1 (11741810_x_at) / RFU WNT11 (11732464_a_at) / Fold change /veh WNT11 (11732464_a_at) / RFU C10orf10 (11716521_a_at) / Fold change /veh C10orf10 (11716521_a_at) / RFU C5orf56 (11738089_at) / Fold change /veh C5orf56 (11738089_at) / RFU CYB561 (11721691_x_at) / Fold change /veh CYB561 (11721691_x_at) / RFU ANKRD19P (11752326_a_at) / Fold change /veh ANKRD19P (11752326_a_at) / RFU OR2T12 /// OR2T33 /// OR2T8 (11738714_s_at) / Fold change /veh OR2T12 /// OR2T33 /// OR2T8 (11738714_s_at) / RFU VCAN (11748164_a_at) / Fold change /veh VCAN (11748164_a_at) / RFU JSRP1 (11732532_at) / Fold change /veh JSRP1 (11732532_at) / RFU KRTAP10-11 (11738290_x_at) / Fold change /veh KRTAP10-11 (11738290_x_at) / RFU MYO3A (11730013_a_at) / Fold change /veh MYO3A (11730013_a_at) / RFU EBF3 (11725865_a_at) / Fold change /veh EBF3 (11725865_a_at) / RFU CAMK2N1 (11719241_x_at) / Fold change /veh CAMK2N1 (11719241_x_at) / RFU C5orf56 (11738088_a_at) / Fold change /veh C5orf56 (11738088_a_at) / RFU OLFML3 (11715873_a_at) / Fold change /veh OLFML3 (11715873_a_at) / RFU LOC100653217 /// NTM (11731650_a_at) / Fold change /veh LOC100653217 /// NTM (11731650_a_at) / RFU MAPK11 (11762145_a_at) / Fold change /veh MAPK11 (11762145_a_at) / RFU FIZ1 (11724087_x_at) / Fold change /veh FIZ1 (11724087_x_at) / RFU OASL (11726364_x_at) / Fold change /veh OASL (11726364_x_at) / RFU SOX15 (11748057_x_at) / Fold change /veh SOX15 (11748057_x_at) / RFU CD79A (11719716_a_at) / Fold change /veh CD79A (11719716_a_at) / RFU HIST1H1D (11736915_at) / Fold change /veh HIST1H1D (11736915_at) / RFU CASKIN2 (11723855_a_at) / Fold change /veh CASKIN2 (11723855_a_at) / RFU LOC730098 (11760151_x_at) / Fold change /veh LOC730098 (11760151_x_at) / RFU OR4N2 (11742367_at) / Fold change /veh OR4N2 (11742367_at) / RFU PRRT2 (11749266_a_at) / Fold change /veh PRRT2 (11749266_a_at) / RFU SNX32 (11753110_a_at) / Fold change /veh SNX32 (11753110_a_at) / RFU CDHR5 (11726645_a_at) / Fold change /veh CDHR5 (11726645_a_at) / RFU RCAN1 (11760418_a_at) / Fold change /veh RCAN1 (11760418_a_at) / RFU FAM167A (11723789_a_at) / Fold change /veh FAM167A (11723789_a_at) / RFU FAM26E (11764081_at) / Fold change /veh FAM26E (11764081_at) / RFU ISYNA1 (11749810_s_at) / Fold change /veh ISYNA1 (11749810_s_at) / RFU ACY1 (11761880_at) / Fold change /veh ACY1 (11761880_at) / RFU 11764098_at / Fold change /veh 11764098_at / RFU SAMD14 (11745864_x_at) / Fold change /veh SAMD14 (11745864_x_at) / RFU NPB (11741838_a_at) / Fold change /veh NPB (11741838_a_at) / RFU TMPRSS6 (11731388_a_at) / Fold change /veh TMPRSS6 (11731388_a_at) / RFU KRTAP10-2 (11738614_at) / Fold change /veh KRTAP10-2 (11738614_at) / RFU ARHGAP8 /// PRR5-ARHGAP8 (11727945_x_at) / Fold change /veh ARHGAP8 /// PRR5-ARHGAP8 (11727945_x_at) / RFU KRTAP5-7 /// NADSYN1 (11734609_at) / Fold change /veh KRTAP5-7 /// NADSYN1 (11734609_at) / RFU RASL12 (11751679_a_at) / Fold change /veh RASL12 (11751679_a_at) / RFU CDKN2B (11736163_a_at) / Fold change /veh CDKN2B (11736163_a_at) / RFU PRF1 (11729649_at) / Fold change /veh PRF1 (11729649_at) / RFU, ZNF638 /// ZNF638-IT1 / Fold change vs veh, ZNF638 /// ZNF638-IT1 / RFU, PANK3 / Fold change vs veh, PANK3 / RFU, SH3YL1 / Fold change vs veh, SH3YL1 / RFU, ZEB2 / Fold change vs veh, ZEB2 / RFU, NRIP1 / Fold change vs veh, NRIP1 / RFU, PTTG1IP / Fold change vs veh, PTTG1IP / RFU, CAPN2 / Fold change vs veh, CAPN2 / RFU, MED14 / Fold change vs veh, MED14 / RFU, SNORA58 / Fold change vs veh, SNORA58 / RFU, C1orf63 / Fold change vs veh, C1orf63 / RFU, LRRFIP1 / Fold change vs veh, LRRFIP1 / RFU, NDUFAF7 / Fold change vs veh, NDUFAF7 / RFU, SLC12A2 / Fold change vs veh, SLC12A2 / RFU, IBTK / Fold change vs veh, IBTK / RFU, ESF1 / Fold change vs veh, ESF1 / Fold change vs veh, TMEM50B / RFU, TAOK1 / Fold change vs veh, TAOK1 / RFU, ACBD3 / Fold change vs veh, ACBD3 / RFU, TMA16 / Fold change vs veh, TMA16 / RFU, RWDD3 / Fold change vs veh, RWDD3 / RFU, BCAT1 / Fold change vs veh, BCAT1 / RFU, EDEM3 / Fold change vs veh, EDEM3 / RFU, TMEM33 / Fold change vs veh, TMEM33 / RFU, WDR75 / Fold change vs veh, WDR75 / RFU, AHCTF1 / Fold change vs veh, AHCTF1 / RFU, TFRC / Fold change vs veh, TFRC / RFU, ZDHHC17 / Fold change vs veh, ZDHHC17 / RFU, NOM1 / Fold change vs veh, NOM1 / RFU, ARL8B / Fold change vs veh, ARL8B / RFU, ZBTB11 / Fold change vs veh, ZBTB11 / RFU, TAMM41 / Fold change vs veh, TAMM41 / RFU, KIAA1704 /// LOC100996395 / Fold change vs veh, KIAA1704 /// LOC100996395 / RFU, ING1 / Fold change vs veh, ING1 / RFU, TRMT61B / Fold change vs veh, TRMT61B / RFU, FUBP3 / Fold change vs veh, FUBP3 / RFU, TP53 / Fold change vs veh, TP53 / RFU, TNKS2 / Fold change vs veh, TNKS2 / RFU, ZFP14 / Fold change vs veh, ZFP14 / RFU, ACTR2 / Fold change vs veh, ACTR2 / RFU, PPP3R1 / Fold change vs veh, PPP3R1 / RFU, PIK3R1 / Fold change vs veh, PIK3R1 / RFU, HNRNPA1 / Fold change vs veh, HNRNPA1 / RFU, RNF170 / Fold change vs veh, RNF170 / RFU, ZNF28 / Fold change vs veh, ZNF28 / RFU, RNGTT / Fold change vs veh, RNGTT / RFU, OGT / Fold change vs veh, OGT / RFU, BRD1 / Fold change vs veh, BRD1 / RFU, MARS / Fold change vs veh, MARS / RFU, ZNF655 / Fold change vs veh, ZNF655 / RFU, FAHD1 / Fold change vs veh, FAHD1 / RFU, BDP1 / Fold change vs veh, BDP1 / RFU, LRRCC1 / Fold change vs veh, LRRCC1 / RFU, ARID1A / Fold change vs veh, ARID1A / RFU, ZNF146 / Fold change vs veh, ZNF146 / RFU, ZNF330 / Fold change vs veh, ZNF330 / RFU, GPN3 / Fold change vs veh, GPN3 / RFU, C9orf123 / Fold change vs veh, C9orf123 / RFU, N4BP2L2 / Fold change vs veh, N4BP2L2 / RFU, ARFIP1 / Fold change vs veh, ARFIP1 / RFU, FAM179B / Fold change vs veh, FAM179B / RFU, BCL10 / Fold change vs veh, BCL10 / RFU, UHRF1BP1L / Fold change vs veh, UHRF1BP1L / RFU, BET1 / Fold change vs veh, BET1 / RFU, CNOT2 / Fold change vs veh, CNOT2 / RFU, ZNF268 / Fold change vs veh, ZNF268 / Fold change vs veh, ZNF507 / RFU, DGCR2 / Fold change vs veh, DGCR2 / RFU, WDSUB1 / Fold change vs veh, WDSUB1 / Fold change vs veh, HSP90B1 /// MIR3652 / RFU, ADSS / Fold change vs veh, ADSS / RFU, GK / Fold change vs veh, GK / RFU, ZNF148 / Fold change vs veh, ZNF148 / RFU, TAF9 / Fold change vs veh, TAF9 / RFU, SLC1A5 / Fold change vs veh, SLC1A5 / RFU, SLMO2 / Fold change vs veh, SLMO2 / RFU, ABCC4 / Fold change vs veh, ABCC4 / RFU, LOC101060439 /// RAP1B / Fold change vs veh, LOC101060439 /// RAP1B / RFU, RFX7 / Fold change vs veh, RFX7 / RFU, GTPBP10 / Fold change vs veh, GTPBP10 / RFU, CNEP1R1 / Fold change vs veh, CNEP1R1 / RFU, BIVM-ERCC5 /// ERCC5 / Fold change vs veh, BIVM-ERCC5 /// ERCC5 / RFU, ILF3 / Fold change vs veh, ILF3 / RFU 11762660_at / Fold change /veh 11762660_at / RFU VCAN (11757783_s_at) / Fold change /veh VCAN (11757783_s_at) / RFU DDX43 (11728927_at) / Fold change /veh DDX43 (11728927_at) / RFU KRT8 (11758188_x_at) / Fold change /veh KRT8 (11758188_x_at) / RFU NKD1 (11759106_at) / Fold change /veh NKD1 (11759106_at) / RFU SRD5A1 (11742802_a_at) / Fold change /veh SRD5A1 (11742802_a_at) / RFU TPSAB1 /// TPSB2 (11721975_s_at) / Fold change /veh TPSAB1 /// TPSB2 (11721975_s_at) / RFU GSTM3 (11746129_a_at) / Fold change /veh GSTM3 (11746129_a_at) / RFU IL23R (11737362_x_at) / Fold change /veh IL23R (11737362_x_at) / RFU TMEM51 (11727254_a_at) / Fold change /veh TMEM51 (11727254_a_at) / RFU PIWIL2 (11732686_x_at) / Fold change /veh PIWIL2 (11732686_x_at) / RFU ORM1 (11744905_x_at) / Fold change /veh ORM1 (11744905_x_at) / RFU CCDC152 (11743942_at) / Fold change /veh CCDC152 (11743942_at) / RFU ECM1 (11717891_a_at) / Fold change /veh ECM1 (11717891_a_at) / RFU IL23R (11748794_a_at) / Fold change /veh IL23R (11748794_a_at) / RFU TNFAIP8L3 (11732012_x_at) / Fold change /veh TNFAIP8L3 (11732012_x_at) / RFU MBOAT4 (11741988_at) / Fold change /veh MBOAT4 (11741988_at) / RFU 11764193_at / Fold change /veh 11764193_at / RFU TMEM53 (11763286_at) / Fold change /veh TMEM53 (11763286_at) / RFU MAGEB2 (11727129_at) / Fold change /veh MAGEB2 (11727129_at) / RFU TMEM200A (11744735_a_at) / Fold change /veh TMEM200A (11744735_a_at) / RFU CCDC152 (11751479_a_at) / Fold change /veh CCDC152 (11751479_a_at) / RFU FAM211A (11726209_a_at) / Fold change /veh FAM211A (11726209_a_at) / RFU RGS16 (11746705_a_at) / Fold change /veh RGS16 (11746705_a_at) / RFU VCAN (11755009_s_at) / Fold change /veh VCAN (11755009_s_at) / RFU RHOB (11743442_s_at) / Fold change /veh RHOB (11743442_s_at) / RFU RGS16 (11720943_a_at) / Fold change /veh RGS16 (11720943_a_at) / RFU RGS16 (11720944_at) / Fold change /veh RGS16 (11720944_at) / RFU, VPS4B / Fold change vs veh, VPS4B / RFU, CREB1 / Fold change vs veh, CREB1 / RFU, DNAJC13 / Fold change vs veh, DNAJC13 / RFU, GNAQ / Fold change vs veh, GNAQ / RFU, CDK5R1 / Fold change vs veh, CDK5R1 / RFU, ZRANB3 / Fold change vs veh, ZRANB3 / RFU, CUL4A / Fold change vs veh, CUL4A / RFU, CCNY / Fold change vs veh, CCNY / RFU, UFL1 / Fold change vs veh, UFL1 / RFU, COG3 / Fold change vs veh, COG3 / RFU, DIAPH2 / Fold change vs veh, DIAPH2 / RFU, SKA2 / Fold change vs veh, SKA2 / RFU, AFF3 / Fold change vs veh, AFF3 / RFU, LMF1 / Fold change vs veh, LMF1 / RFU, IPO11 / Fold change vs veh, IPO11 / RFU, DFFB / Fold change vs veh, DFFB / RFU, FOXP1 / Fold change vs veh, FOXP1 / RFU, CARD8 / Fold change vs veh, CARD8 / RFU, STRN3 / Fold change vs veh, STRN3 / RFU, ADK / Fold change vs veh, ADK / RFU, RASSF2 / Fold change vs veh, RASSF2 / RFU, WIPF1 / Fold change vs veh, WIPF1 / RFU, LARP1B / Fold change vs veh, LARP1B / RFU, RASA1 / Fold change vs veh, RASA1 / RFU, RB1 / Fold change vs veh, RB1 / RFU, PPFIA1 / Fold change vs veh, PPFIA1 / RFU, MAT2A / Fold change vs veh, MAT2A / RFU, CCT5 / Fold change vs veh, CCT5 / RFU, WDR92 / Fold change vs veh, WDR92 / RFU, CUX1 / Fold change vs veh, CUX1 / RFU, TTC7A / Fold change vs veh, TTC7A / RFU, TMEM135 / Fold change vs veh, TMEM135 / RFU, DEPTOR / Fold change vs veh, DEPTOR / RFU, CPM / Fold change vs veh, CPM / RFU, DNAJB6 / Fold change vs veh, DNAJB6 / RFU, CACNA2D3 / Fold change vs veh, CACNA2D3 / RFU, DTX4 / Fold change vs veh, DTX4 / RFU, TFCP2 / Fold change vs veh, TFCP2 / RFU, GMCL1 /// GMCL1P1 / Fold change vs veh, GMCL1 /// GMCL1P1 / RFU, AEBP2 / Fold change vs veh, AEBP2 / RFU, SNHG1 /// SNORD22 /// SNORD25 /// SNORD26 /// SNORD27 /// SNORD28 /// SNORD29 /// SNORD31 / Fold change vs veh, SNHG1 /// SNORD22 /// SNORD25 /// SNORD26 /// SNORD27 /// SNORD28 /// SNORD29 /// SNORD31 / Fold change (Aza/veh), C12orf56 (ProbeSet 11735607_a_at) / Fold change (ACY-1035/veh), C12orf56 (ProbeSet 11735607_a_at) / Fold change (Aza/veh), FGFR1OP (ProbeSet 11751329_s_at) / Fold change (ACY-1035/veh), FGFR1OP (ProbeSet 11751329_s_at) / Fold change (Aza/veh), VPS36 (ProbeSet 11739960_a_at) / Fold change (ACY-1035/veh), VPS36 (ProbeSet 11739960_a_at) / RFU SYPL1 (11715823_x_at) / Fold change /veh SYPL1 (11715823_x_at) / RFU IGFBP7 (11715501_s_at) / Fold change /veh IGFBP7 (11715501_s_at) / RFU REEP3 (11722064_at) / Fold change /veh REEP3 (11722064_at) / RFU IGLL1 (11728026_x_at) / Fold change /veh IGLL1 (11728026_x_at): dose or concentration left out as unconfirmed
# Conditions: ProbeSet 11749645_x_at; LIST B
compound,measurement,value
Nc1ccc(-c2cccs2)cc1NC(=O)c1ccc2c(c1)cc(C1CC1)n2CCN1CCOCC1 [ACY-1035],"RFU, ZNF268",141.54 RFU
